Values of other authors, collected in patent US20240374627A1, “A PHARMACEUTICAL COMPOSITION COMPRISING COMBINATION OF SITAGLIPTIN AND EMPAGLIFLOZIN” (UNISON PHARMACEUTICALS PVT. LTD., priority 2021, published 2024).
Like-named read-outs stand apart in the source and are kept apart here.

Assays:
[1] = healthy volunteers; Brand et al., Adv Ther 2012

| solubility (N,N-dimethyl formamide) | solubility (acetone) | solubility (acetonitrile) | solubility (ethanol) | solubility (isopropanol) | solubility (isopropyl acetate) | solubility (methanol) | solubility (water) | solubility (aqueous media between pH 1-7.4, European assessment report of Jardiance) | solubility (toluene) | solubility (water (pH 1-7.4)) | SMILES | effect of coadministration on the pharmacokinetics of either drug [1] |
| --- | --- | --- | --- | --- | --- | --- | --- | --- | --- | --- | --- | --- |
| soluble | soluble | soluble | soluble | insoluble | insoluble | slightly soluble | soluble | – | – | – | N[C@@H](CC(=O)N1CCn2c(nnc2C(F)(F)F)C1)Cc1cc(F)c(F)cc1F [Sitagliptin, 7-[(3R)-3-amino-1-oxo-4-(2,4,5-trifluorophenyl)butyl]-5,6,7,8-tetrahydro-3-(trifluoromethyl)-1,2,4-triazolo[4,3-a]pyrazine phosphate (1:1) monohydrate] | without specifying any clinically relevant effect |
| – | – | slightly soluble | slightly soluble | – | – | sparingly soluble | – | slightly soluble | practically insoluble | very slightly soluble | OC[C@H]1O[C@@H](c2ccc(Cl)c(Cc3ccc(O[C@H]4CCOC4)cc3)c2)[C@H](O)[C@@H](O)[C@@H]1O [Empagliflozin, (1S)-1,5-anhydro-1-(4-chloro-3-{4-[(3S)-tetrahydrofuran-3-yloxy]benzyl}phenyl)-D-glucitol] | without specifying any clinically relevant effect |
